Test results taken from ChEMBL document CHEMBL1149920, “Synthesis and biological evaluation of an alkenyldiarylmethane (ADAM) which acts as a novel non-nucleoside HIV-1 reverse transcriptase inhibitor” (Bioorg Med Chem Lett, 1995).
Calls of active or inactive are those of the source. The rule behind the calls is not given here.

How the values were obtained:
MT4 [1] = test: Concentration that provides 50% protection in the MT-4 cells infected with SIV strain; format: functional, cell-based; details: Homo sapiens
MO/Mphi [2] = test: Concentration that provides 50% protection in the MO/Mphi cells infected with HIV-1 Ba-L strain; format: functional, cell-based; details: Homo sapiens
MT4 [3] = test: Concentration that results in 50% death of MT-4 cells infected with SIV strain; no toxicity was observed; format: functional, cell-based; details: Homo sapiens
MO/Mphi [4] = test: Concentration that results in 50% death of MO/Mphi cells infected with HIV-1 Ba-L strain; no toxicity was observed; format: functional, cell-based; details: Homo sapiens
MT4 [5] = test: Concentration that results in 50% death of MT-4 cells infected with HIV-1 IIIB strain; no toxicity was observed; format: functional, cell-based; details: Homo sapiens
MT4 [6] = test: Concentration that provides 50% protection in the MT-4 cells infected with HIV-1 IIIBstrain; format: functional, cell-based; details: Homo sapiens
MT4 [7] = test: Concentration that provides 50% protection in the MT-4 cells infected with AZT-resistant HIV-1 6S strain; format: functional, cell-based; details: Homo sapiens
MT4 [8] = test: Concentration that results in 50% death of MT-4 cells infected with pyridinone-resistant HIV-1 A17 strain; no toxicity was observed; format: functional, cell-based; details: Homo sapiens
MT4 [9] = test: Concentration that results in 50% death of MT-4 cells infected with HIV-1 6S strain; no toxicity was observed; format: functional, cell-based; details: Homo sapiens
MT4 [10] = test: Concentration that results in 50% death of MT-4 cells infected with AZT resistant HIV-1 6R strain; no toxicity was observed; format: functional, cell-based; details: Homo sapiens
PBL [11] = test: Concentration that provides 50% protection in the PBL cells infected with HIV-1 WEJO strain; format: functional, cell-based; details: Homo sapiens
PBL [12] = test: Concentration that provides 50% protection in the PBL cells infected with HIV-1 VIHU strain; format: functional, cell-based; details: Homo sapiens
PBL [13] = test: Concentration that results in 50% death of PBL cells infected with HIV-1 VIHU strain; no toxicity was observed; format: functional, cell-based; details: Homo sapiens
PBL [14] = test: Concentration that results in 50% death of PBL cells infected with HIV-1 BAKI strain; no toxicity was observed; format: functional, cell-based; details: Homo sapiens
MT4 [15] = test: Concentration that provides 50% protection in the MT-4 cells infected with pyridinone-resistant HIV-1 A17 strain; format: functional, cell-based; details: Homo sapiens
[16] = target: Human immunodeficiency virus type 1 reverse transcriptase (Human immunodeficiency virus 1, UniProt Q72547); test: Inhibitory activity against HIV-1 reverse transcriptase
MT4 [17] = test: Concentration that results in 50% death of MT-4 cells infected with Nevirapine resistant HIV-1 N119 strain; no toxicity was observed; format: functional, cell-based; details: Homo sapiens
MO/Mphi [18] = test: Concentration that provides 50% protection in the MO/Mphi cells infected with HIV-1 ADA strain; format: functional, cell-based; details: Homo sapiens
PBL [19] = test: Concentration that results in 50% death of PBL cells infected with HIV-1 WEJO strain; no toxicity was observed; format: functional, cell-based; details: Homo sapiens
MT4 [20] = test: Concentration that provides 50% protection in the MT-4 cells infected with nevirapine-resistant HIV-1 N119 strain; format: functional, cell-based; details: Homo sapiens
CEM-SS = test: Concentration that provides 50% protection in the CEM-SS cells infected with HIV-2 strain; IA means inactive; format: functional, cell-based; details: Homo sapiens
PBL [21] = test: Concentration that provides 50% protection in the PBL cells infected with HIV-1 BAKI strain; format: functional, cell-based; details: Homo sapiens
MO/Mphi [22] = test: Concentration that results in 50% death of MO/Mphi cells infected with HIV-1 ADA strain; no toxicity was observed; format: functional, cell-based; details: Homo sapiens
MT4 [23] = test: Concentration that provides 50% protection in the MT-4 cells infected with AZT-resistant HIV-1 6R strain; format: functional, cell-based; details: Homo sapiens

CCCCCC=C(c1cc(Br)c(OC)c(C(=O)OC)c1)c1cc(Br)c(OC)c(C(=O)OC)c1
EC50 (MT4 [1]): 136 µM
EC50 (MO/Mphi [2]): 5.5 µM
IC50 (MT4 [3]): > 200 µM
IC50 (MO/Mphi [4]): > 200 µM
IC50 (MT4 [5]): > 200 µM
EC50 (MT4 [6]): 16 µM
EC50 (MT4 [7]): 0.56 µM
IC50 (MT4 [8]): > 200 µM
IC50 (MT4 [9]): > 200 µM
IC50 (MT4 [10]): > 200 µM
EC50 (PBL [11]): 10.2 µM
EC50 (PBL [12]): 24.9 µM
IC50 (PBL [13]): > 100 µM
IC50 (PBL [14]): > 100 µM
EC50 (MT4 [15]): 14 µM
IC50 [16]: 0.38 µM
IC50 (MT4 [17]): > 200 µM
EC50 (MO/Mphi [18]): 1.85 µM
IC50 (PBL [19]): > 100 µM
EC50 (MT4 [20]): 151 µM
IA (CEM-SS): inactive
EC50 (PBL [21]): 15.2 µM
IC50 (MO/Mphi [22]): > 200 µM
EC50 (MT4 [23]): 6 µM
